Test results published in patent publication US20250002473A1, “QUINOXALINE DERIVED SULFONAMIDES WITH EGFR DEGRADATION ACTIVITIES AND THEIR USES THEREOF” (Accutar Biotechnology Inc., priority 2023, published 2025).

Key:
Format in all cases: cell-based
A431 = test: Cell growth inhibition assay (CellTiter-Glo), A431; conditions: Homo sapiens, A-431, 72 h, Table 6; A431 cells, three days, CellTiter-Glo; read-out: A431 GI50
Experimental: (§1) Cells were seeded in a 96-well plate (Corning 3610) with 90 μL of culture medium per well, and plates were incubated at 37° C. overnight. A 1,000× DMSO stock solution of the desired compound was prepared the following day. A compound dilution plate was prepared by diluting the stock solution 1:100 in the corresponding cell culture medium, 10 μL of the diluted compound solution was added to each 96-well plate well containing the seeded cells. […] The content of the wells was mixed by shaking continuously for 10 min, and luminescence was measured using Envision (PerkinElmer). The data were analyzed with GraphPad Prism 9 (see FIG. 50).
(§2) Table 6, Table 7, and Table 8 list the cell growth inhibition results, where Gls0 represents the compound concentration to cause 50% cell growth inhibition in comparison with DMSO.

BaF3_DTC = test: Cell growth inhibition assay (CellTiter-Glo), BaF3_DTC; conditions: 72 h; Table 6; BaF3_DTC cells, three days, CellTiter-Glo; read-out: BaF3_DTC GI50
Experimental: as §1, §2

A431 (EGFR_WT) = target: T1, A431 (EGFR_WT) (Homo sapiens, UniProt P00533); test: EGFR degradation assay (western blot), A431 cells; conditions: compounds 24 h, western blot, read-out: A431 DC50
T1 construct: endogenous in cells; host or cells: A431, NCI-H2073, NCI-H292
Experimental: (§3) A431 (EGFR_WT), NCl-H2073 (EGFR_WT), NCl-H292 (EGFR_WT), BaF3_YVAM (Her2_A775insYVAM), BaF3_SVD (EGFR_D770insSVD), BaF3_ASV (EGFR_A776inASV), or BaF3_DTC (EGFR_Exon19del/T790M/C797S) cells were seeded in a 24-well plate at a density of 4×10^5 cells per well for EGFR WT cells and 8× cells per well for EGFR or Her2 mutant cells, and the plates were incubated overnight. The cells were treated with the desired compounds for 24 h. The culture medium was removed, and 100 μL of RIPA buffer (Beyotime, P0013B) containing 1% Protease Inhibitor Cocktail (Bimake, B14001), 1% Phosphatase Inhibitor Cocktail 2 (Sigma, P5726), and 1% Phosphatase Inhibitor Cocktail 3 (Sigma, P0044) were added to lyse the cells. Then, the cell lysates were transferred to 1.5 mL microcentrifuge tubes and centrifuged at 12,000 rpm and 4° C. for 30 min. The supernatants were transferred into new tubes, and the protein concentration was determined using the BCA protein quantification method. All samples were diluted to the same concentration using RIPA buffer, loading buffer was added, samples were denatured, and 15 μg of protein per lane was loaded onto a SurePAGE 4-20% Bis-Tris gel. Samples were separated via electrophoresis in MOPS running buffer at 180 V for 100 min. Then, proteins were transferred onto PVDF membranes using the MiniBlot™ Electrophoretic Transfer Cell Device (Beyotime, E6050). The membrane was blocked using block buffer (LI-COR 927-60001) to prevent non-specific binding. The membrane was incubated with primary antibodies (1:500 dilution, EGFR-CST4405, 1:2000 dilution, Tubulin-ABclonal #AC021) at 4° C. overnight. The membrane was washed three times with 1× TBST buffer for 15 min each. The membrane was incubated with secondary antibodies IRDye 680RD Goat anti-Rabbit IgG Secondary Antibody (1:2000 dilution, LI-COR 926-68071) and IRDye 800CW Goat anti-Mouse IgG Secondary Antibody (1:2000 dilution, LI-COR 926-32210). Finally, the membrane was washed again with 1× TBST buffer 3 times. Fluorescence was detected using the Odyssey CLx Imaging System, and the data were analyzed with Empiria Studio Software and GraphPad Prism 9. Table 4 and Table 5 list the degradation results, where the degradation potency is represented by DC50, the concentration of compounds to cause the degradation of 50% of the corresponding proteins. FIGS. 45-49 show western blots illustrating the EGFR degradative activity of exemplary Compound of the present disclosure and a comparator Compound A in different cell lines 24 h after administration. The Compound referred herein as Compound A is disclosed in WO 2022/171123 A1 (see, compound 133, page 46; published Aug. 18, 2022). WO 2022/171123 A1 discloses phosphine oxide derived molecules with EGFR degradation activity.

[1] = system: BaF3_DTC (EGFR_Exon19del/T790M/C797S); test: EGFR degradation assay (western blot), BaF3_DTC cells; conditions: BaF3_DTC cells (EGFR_Exon19del/T790M/C797S), compounds 24 h, western blot; read-out: BaF3_DTC DC50
Experimental: as §3

BaF3_ASV = test: Cell growth inhibition assay (CellTiter-Glo), BaF3_ASV; conditions: 72 h; Table 6; BaF3_ASV cells, three days, CellTiter-Glo; read-out: BaF3_ASV GI50
Experimental: as §1, §2

[2] = target: T2, BaF3_ASV (EGFR_A776inASV) (Homo sapiens, UniProt P00533, DUP767-769); test: EGFR degradation assay (western blot), BaF3_ASV cells; conditions: BaF3_ASV cells, compounds 24 h, western blot; read-out: BaF3_ASV DC50
T2 construct: expressed in transfected cells; host or cells: Ba/F3 (engineered)
Experimental: as §3

T1 sequence (P00533 25-1210): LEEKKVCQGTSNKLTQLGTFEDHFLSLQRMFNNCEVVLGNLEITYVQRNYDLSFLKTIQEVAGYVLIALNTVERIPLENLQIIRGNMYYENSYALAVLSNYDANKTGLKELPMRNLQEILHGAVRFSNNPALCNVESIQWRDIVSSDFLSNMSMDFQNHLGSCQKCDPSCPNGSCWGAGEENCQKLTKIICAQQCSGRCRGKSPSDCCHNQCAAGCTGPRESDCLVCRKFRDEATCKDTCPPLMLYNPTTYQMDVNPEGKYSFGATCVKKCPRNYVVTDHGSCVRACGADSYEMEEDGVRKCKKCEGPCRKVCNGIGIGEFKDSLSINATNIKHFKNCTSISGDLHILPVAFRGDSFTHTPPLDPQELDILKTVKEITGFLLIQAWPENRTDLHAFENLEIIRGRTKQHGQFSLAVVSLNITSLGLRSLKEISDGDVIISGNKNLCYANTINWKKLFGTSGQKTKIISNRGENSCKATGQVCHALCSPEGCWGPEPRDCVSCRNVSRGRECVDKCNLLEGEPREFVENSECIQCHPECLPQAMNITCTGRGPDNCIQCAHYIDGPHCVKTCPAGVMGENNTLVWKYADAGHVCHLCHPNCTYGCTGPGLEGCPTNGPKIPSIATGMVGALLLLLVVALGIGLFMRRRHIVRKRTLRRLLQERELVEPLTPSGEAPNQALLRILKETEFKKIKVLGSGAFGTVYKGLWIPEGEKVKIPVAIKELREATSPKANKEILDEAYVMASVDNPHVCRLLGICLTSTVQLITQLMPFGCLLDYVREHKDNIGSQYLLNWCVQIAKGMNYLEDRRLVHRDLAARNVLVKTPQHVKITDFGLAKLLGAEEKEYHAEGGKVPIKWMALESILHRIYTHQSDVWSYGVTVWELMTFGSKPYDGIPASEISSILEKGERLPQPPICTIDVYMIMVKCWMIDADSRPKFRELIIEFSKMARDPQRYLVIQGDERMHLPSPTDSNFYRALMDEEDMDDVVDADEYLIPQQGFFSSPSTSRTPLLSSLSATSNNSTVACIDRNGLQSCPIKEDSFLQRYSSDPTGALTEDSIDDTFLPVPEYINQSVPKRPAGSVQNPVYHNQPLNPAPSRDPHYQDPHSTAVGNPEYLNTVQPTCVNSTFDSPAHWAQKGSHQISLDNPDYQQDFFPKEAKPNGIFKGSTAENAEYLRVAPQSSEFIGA
T2 sequence (P00533 with tags, fused parts or gaps DUP767-769): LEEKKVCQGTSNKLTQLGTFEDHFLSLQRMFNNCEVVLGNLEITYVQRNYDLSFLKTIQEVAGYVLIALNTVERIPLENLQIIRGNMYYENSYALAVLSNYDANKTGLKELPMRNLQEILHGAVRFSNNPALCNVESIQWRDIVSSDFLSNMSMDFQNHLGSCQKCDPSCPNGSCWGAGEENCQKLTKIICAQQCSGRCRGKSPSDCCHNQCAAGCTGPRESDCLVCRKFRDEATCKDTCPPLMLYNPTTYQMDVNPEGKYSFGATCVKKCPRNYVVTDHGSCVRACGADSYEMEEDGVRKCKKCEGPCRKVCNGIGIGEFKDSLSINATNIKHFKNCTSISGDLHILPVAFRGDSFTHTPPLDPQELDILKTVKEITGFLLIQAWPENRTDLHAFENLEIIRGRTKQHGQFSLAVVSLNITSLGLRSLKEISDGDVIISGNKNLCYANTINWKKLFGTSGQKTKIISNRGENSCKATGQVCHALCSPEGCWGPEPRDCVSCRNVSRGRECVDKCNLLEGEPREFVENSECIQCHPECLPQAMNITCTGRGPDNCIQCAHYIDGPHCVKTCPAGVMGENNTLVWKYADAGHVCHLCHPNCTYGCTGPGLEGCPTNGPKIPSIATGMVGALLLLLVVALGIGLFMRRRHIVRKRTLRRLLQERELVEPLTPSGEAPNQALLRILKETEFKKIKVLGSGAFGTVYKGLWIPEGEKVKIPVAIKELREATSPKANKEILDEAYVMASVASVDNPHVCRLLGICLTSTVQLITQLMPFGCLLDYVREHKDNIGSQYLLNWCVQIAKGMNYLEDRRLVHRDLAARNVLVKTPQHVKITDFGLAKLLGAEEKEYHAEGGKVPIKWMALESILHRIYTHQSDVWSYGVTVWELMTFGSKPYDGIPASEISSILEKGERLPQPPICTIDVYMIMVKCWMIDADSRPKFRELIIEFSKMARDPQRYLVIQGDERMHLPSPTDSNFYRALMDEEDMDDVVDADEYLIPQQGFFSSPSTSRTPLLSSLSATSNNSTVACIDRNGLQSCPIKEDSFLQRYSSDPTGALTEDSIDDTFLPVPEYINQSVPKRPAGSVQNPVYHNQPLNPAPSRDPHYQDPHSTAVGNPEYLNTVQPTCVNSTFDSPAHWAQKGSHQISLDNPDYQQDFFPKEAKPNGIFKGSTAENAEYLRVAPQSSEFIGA

Structure (SMILES)	GI50 (A431) [nM]	GI50 (BaF3_DTC) [nM]	DC50 (A431 (EGFR_WT)) [nM]	DC50 [1] [nM]	GI50 (BaF3_ASV) [nM]	DC50 [2] [nM]
CCc1cc(Nc2ncc(Br)c(Nc3ccc4nccnc4c3NS(C)(=O)=O)n2)c(OC)cc1N1CCC(N2CCN(CC3CCN(c4ccc5c(c4)CN(C4CCC(=O)NC4=O)C5=O)CC3)CC2)CC1 (stereo not drawn) [Compound 7, N-(6-((5-bromo-2-((4-(4-(4-((1-(2-(2,6-dioxopiperidin-3-yl)-1-oxoisoindolin-5-yl)piperidin-4-yl)methyl)piperazin-1-yl)piperidin-1-yl)-5-ethyl-2-methoxyphenyl)amino)pyrimidin-4~yl)amino)quinoxalin-5-yl)methanesulfonamide]	> 1000	2.84	> 1000	2.43	41.9	16.6
CCc1cc(Nc2ncc(Br)c(Nc3ccc4nccnc4c3NS(C)(=O)=O)n2)c(OC)cc1N1CCC(N2CCN(CCc3cccc4c3C(=O)N(C3CCC(=O)NC3=O)C4)CC2)CC1 (stereo not drawn) [Compound 8, N-(6-((5-bromo-2-((4-(4-(4-(2-(2-(2,6-dioxopiperidin-3-yl)-3-oxoisoindolin-4-yl)ethyl)piperazin-1-yl)piperidin-1-yl)-5-ethyl-2-methoxyphenyl)amino)pyrimidin-4-yl)amino)quinoxalin-5-yl)methanesulfonamide]	> 1000	24.7	> 1000	23.3	858	> 1000
CCc1cc(Nc2ncc(Br)c(Nc3ccc4nccnc4c3NS(C)(=O)=O)n2)c(OC)cc1N1CCC(N2CCN(CCc3cccc4c3CN(C3CCC(=O)NC3=O)C4=O)CC2)CC1 (stereo not drawn) [Compound 9, N-(6-((5-bromo-2-((4-(4-(4-(2-(2-(2,6-dioxopiperidin-3-yl)-1-oxoisoindolin-4-yl)ethyl)piperazin-1-yl)piperidin-1-yl)-5-ethyl-2-methoxyphenyl)amino)pyrimidin-4-yl)amino)quinoxalin-5-yl)methanesulfonamide]	> 1000	14.7	> 1000	8.05	563	251
CCc1cc(Nc2ncc(Br)c(Nc3ccc4nccnc4c3NS(C)(=O)=O)n2)c(OC)cc1N1CCC(N2CCN(C(=O)C3CCN(c4ccc5c(c4)CN(C4CCC(=O)NC4=O)C5=O)CC3)CC2)CC1 (stereo not drawn) [Compound 10, N-(6-((5-bromo-2-((4-(4-(4-(1-(2-(2,6-dioxopiperidin-3-yl)-1-oxoisoindolin-5-yl)piperidine-4-carbonyl)piperazin-1-yl)piperidin-1-yl)-5-ethyl-2-methoxyphenyl)amino)pyrimidin-4-yl)amino)quinoxalin-5-yl)methanesulfonamide]	> 1000	9.6	> 1000	1.21	72.7	20
CCc1cc(Nc2ncc(Br)c(Nc3ccc4nccnc4c3NS(C)(=O)=O)n2)c(OC)cc1N1CCC(N2CCN(c3ccc4c(c3)CN([C@H]3CCC(=O)NC3=O)C4=O)CC2)CC1 [Compound 38, (S)-N-(6-((5-bromo-2-((4-(4-(4-(2-(2,6-dioxopiperidin-3-yl)-1-oxoisoindolin-5-yl)piperazin-1-yl)piperidin-1-yl)-5-ethyl-2-methoxyphenyl)amino)pyrimidin-4-yl)amino)quinoxalin-5~yl)methanesulfonamide]	> 1000	9.14	> 1000	4.2	90.3	35.1
CCc1cc(Nc2ncc(Br)c(Nc3ccc4nccnc4c3NS(C)(=O)=O)n2)c(OC)cc1N1CCC(N2CCC(C(=O)N3CCN(c4ccc5c(c4)CN([C@H]4CCC(=O)NC4=O)C5=O)CC3)CC2)CC1 [Compound 41, (S)-N-(6-((5-bromo-2-((4-(4-(4-(2-(2,6-dioxopiperidin-3-yl)-1-oxoisoindolin-5-yl)piperazine-1-carbonyl)-[1,4′-bipiperidin]-1′-yl)-5-ethyl-2-methoxyphenyl)amino)pyrimidin-4-yl)amino)quinoxalin-5-yl)methanesulfonamide]	> 1000	123	> 1000	> 100	52.7	335
CCc1cc(Nc2ncc(Br)c(Nc3ccc4nccnc4c3NS(C)(=O)=O)n2)c(OC)cc1N1CCC(N2CCN(C3CC4(CCN(c5ccc6c(c5)CN(C5CCC(=O)NC5=O)C6=O)CC4)C3)CC2)CC1 (stereo not drawn) [Compound 48, N-(6-((5-bromo-2-((4-(4-(4-(7-(2-(2,6-dioxopiperidin-3-yl)-1-oxoisoindolin-5-yl)-7-azaspiro[3.5]nonan-2-yl)piperazin-1-yl)piperidin-1-yl)-5-ethyl-2-methoxyphenyl)amino)pyrimidin-4-yl)amino)quinoxalin-5-yl)methanesulfonamide]	> 1000	6.04	> 1000	4.26	36.8	23.7
CCc1cc(Nc2ncc(Br)c(Nc3ccc4nccnc4c3NS(C)(=O)=O)n2)c(OC)cc1N1CCC(N2CCN(C3CCN(c4ccc5c(c4)CN(C4CCC(=O)NC4=O)C5=O)CC3)CC2)CC1 (stereo not drawn) [Compound 49, N-(6-((5-bromo-2-((4-(4-(4-(1-(2-(2,6-dioxopiperidin-3-yl)-1-oxoisoindolin-5-yl)piperidin-4-yl)piperazin-1-yl)piperidin-1-yl)-5-ethyl-2-methoxyphenyl)amino)pyrimidin-4-yl)amino)quinoxalin-5-yl)methanesulfonamide]	≥ 1000	4.43	> 1000	2.36	32.7	19.7
CCc1cc(Nc2ncc(Br)c(Nc3ccc4nccnc4c3NS(C)(=O)=O)n2)c(OC)cc1N1CCC(N2CC3(CCN(c4ccc5c(c4)CN(C4CCC(=O)NC4=O)C5=O)CC3)C2)CC1 (stereo not drawn) [Compound 57, N-(6-((5-bromo-2-((4-(4-(7-(2-(2,6-dioxopiperidin-3-yl)-1~oxoisoindolin-5-yl)-2,7-diazaspiro[3.5]nonan-2-yl)piperidin-1-yl)-5-ethyl-2-methoxyphenyl)amino)pyrimidin-4-yl)amino)quinoxalin-5-yl)methanesulfonamide]	360	5.89	> 1000	4.73	51.5	44.5
CCc1cc(Nc2ncc(Br)c(Nc3ccc4nccnc4c3NS(C)(=O)=O)n2)c(OC)cc1N1CCC(N2CCN(CCc3cc(F)c(C4CCC(=O)NC4=O)c(F)c3)CC2)CC1 (stereo not drawn) [Compound 71, N-(6-((5-bromo-2-((4-(4-(4-(4-(2,6-dioxopiperidin-3-yl)-3,5~difluorophenethyl)piperazin-1-yl)piperidin-1-yl)-5-ethyl-2-methoxyphenyl)amino)pyrimidin-4-yl)amino)quinoxalin-5-yl)methanesulfonamide]	> 3000	5.41	> 1000	3.51	131	55.1
